In assay [1] the test system is Caenorhabditis elegans. As to the kind of experiment: Induction of oocyte production in Caenorhabditis elegans Bristol isolate N2 with puf-1; lip-1 double mutant.
Assay [2] concerns Caenorhabditis elegans. Nature of the assay: Induction of oocyte production in Caenorhabditis elegans Bristol isolate N2 with […]; lip-1 double mutant at 100 uM. It counts as functional.
Assay [3] has as its system Caenorhabditis elegans. Nature of the assay: Decrease in activated MPK-1/ERK levels in Caenorhabditis elegans Bristol isolate N2 by Western blot method at 50 uM. It counts as functional, organism-based.
In assay [4] the test system is Caenorhabditis elegans. Nature of the assay: Induction of oocyte production in Caenorhabditis elegans Bristol isolate N2 with […]; lip-1 double mutant assessed as expression of oocyte marker RME-2 50 uM. It counts as functional, organism-based.
The subject of assay [5] is Caenorhabditis elegans. As to the kind of experiment: Induction of oocyte production in Caenorhabditis elegans Bristol isolate N2 with […]; lip-1 double mutant assessed as change in oocyte-specific cellular morphology at 50 uM. In kind it is functional.

Results on three compounds are retold here after ChEMBL document CHEMBL1212807, “Chemical reprogramming of Caenorhabditis elegans germ cell fate” (Nat Chem Biol, 2010).

Activity calls are given as the source filed them. The rule behind the calls is not given here.

As a reminder, the EC50 is the concentration giving half of the maximal effect.

In the assay on Caenorhabditis elegans [1], `N#CC(=C(/N)Sc1ccccc1N)/C(C#N)=C(\N)Sc1ccccc1N` registered an EC50 of 2000 nM. `COc1cccc(-c2cc(=O)c3ccccc3o2)c1N`: the Activity in the assay on Caenorhabditis elegans [2] amounted to 5.3%. As to `O=C(NOC[C@H](O)CO)c1ccc(F)c(F)c1Nc1ccc(I)cc1F` [MIRDAMETINIB], the result in the assay on Caenorhabditis elegans [3] and with Caenorhabditis elegans [4] was Active. Also, in the assay with Caenorhabditis elegans [5], the Activity is reported as 91%.
